Measured values from the NIST ThermoML archive (doi:10.1016/j.jct.2012.10.008).
Numbers after ± are expanded uncertainties.

What was measured:
[1] = refractive index (Na D-line) (dimensionless); conditions: 298.15 K; 101.33 kPa; Liquid; Standard Abbe refractometry
[2] = Liquid; for viscosity: Falling or rolling sphere viscometry; for mass density: Vibrating tube method
[3] = xn = mol fraction of the nth substance listed; conditions: 101 kPa, Liquid, x2 = 0; for viscosity: Falling or rolling sphere viscometry; for mass density: Vibrating tube method

SMILES	refractive index [1]	viscosity ([2]; 293.15 K, 101.33 kPa)	mass density ([2]; 293.15 K, 101.33 kPa)	viscosity ([2]; 298.15 K, 101.33 kPa)	mass density ([2]; 298.15 K, 101.33 kPa)	viscosity ([2]; 303.15 K, 101.33 kPa)	mass density ([2]; 303.15 K, 101.33 kPa)	viscosity ([2]; 308.15 K, 101.33 kPa)	mass density ([2]; 308.15 K, 101.33 kPa)	viscosity ([2]; 313.15 K, 101.33 kPa)	mass density ([2]; 313.15 K, 101.33 kPa)	viscosity ([3]; 293.15 K)	mass density ([3]; 293.15 K)	viscosity ([3]; 298.15 K)	mass density ([3]; 298.15 K)	viscosity ([3]; 303.15 K)	mass density ([3]; 303.15 K)	viscosity ([3]; 308.15 K)	mass density ([3]; 308.15 K)	viscosity ([3]; 313.15 K)	other results
CCCCO [butan-1-ol]	1.3972 ± 0.0004	2.942 ± 0.023 mPa·s	809.76 ± 0.14 kg/m3	2.572 ± 0.02 mPa·s	805.96 ± 0.14 kg/m3	2.265 ± 0.018 mPa·s	802.11 ± 0.15 kg/m3	2.002 ± 0.016 mPa·s	798.18 ± 0.15 kg/m3	1.787 ± 0.014 mPa·s	794.39 ± 0.15 kg/m3										mass density ([2]; 298.15 K, 101 kPa): 805.94 ± 0.14 kg/m3
CCCO [propan-1-ol]	1.3833 ± 0.0004	2.208 ± 0.017 mPa·s	803.56 ± 0.15 kg/m3	1.975 ± 0.016 mPa·s	799.58 ± 0.15 kg/m3	1.738 ± 0.014 mPa·s	795.59 ± 0.15 kg/m3	1.549 ± 0.012 mPa·s	791.48 ± 0.15 kg/m3	1.382 ± 0.011 mPa·s	787.36 ± 0.15 kg/m3										
CCO [ethanol] + CCCC[NH3+].O=[N+]([O-])[O-]												1.218 ± 0.01 mPa·s	789.5 ± 0.15 kg/m3	1.134 ± 0.009 mPa·s	785.39 ± 0.15 kg/m3	1.01 ± 0.008 mPa·s	780.69 ± 0.15 kg/m3	0.907 ± 0.008 mPa·s	776.35 ± 0.15 kg/m3	0.836 ± 0.007 mPa·s	mass density ([3]; 313.15 K): 772.11 ± 0.15 kg/m3
CCCC[NH3+].O=[N+]([O-])[O-] [n-butylammonium nitrate]	1.4458 ± 0.0011	111.35 ± 4.1 mPa·s	1104.68 ± 6.6 kg/m3	89.95 ± 2.9 mPa·s	1101.52 ± 6.6 kg/m3	73.04 ± 2.1 mPa·s	1098.38 ± 6.5 kg/m3	60.25 ± 1.6 mPa·s	1095.26 ± 6.5 kg/m3	50.12 ± 1.3 mPa·s	1092.17 ± 6.5 kg/m3										
CCO [ethanol]	1.3594 ± 0.0004	1.218 ± 0.01 mPa·s	789.5 ± 0.15 kg/m3	1.134 ± 0.009 mPa·s	785.39 ± 0.15 kg/m3	1.015 ± 0.008 mPa·s	780.69 ± 0.15 kg/m3	0.91 ± 0.008 mPa·s	776.35 ± 0.15 kg/m3	0.836 ± 0.007 mPa·s	772.11 ± 0.15 kg/m3										viscosity ([2]; 303.15 K, 101 kPa): 1.01 ± 0.008 mPa·s; viscosity ([2]; 308.15 K, 101 kPa): 0.907 ± 0.008 mPa·s
CCCO [propan-1-ol] + CCCC[NH3+].O=[N+]([O-])[O-]												2.208 ± 0.017 mPa·s	803.56 ± 0.14 kg/m3	1.975 ± 0.016 mPa·s	799.58 ± 0.15 kg/m3	1.738 ± 0.014 mPa·s	795.59 ± 0.15 kg/m3	1.549 ± 0.012 mPa·s	791.48 ± 0.15 kg/m3	1.382 ± 0.011 mPa·s	mass density ([3]; 313.15 K): 787.36 ± 0.15 kg/m3
CCCCO [butan-1-ol] + CCCC[NH3+].O=[N+]([O-])[O-]												2.942 ± 0.023 mPa·s	809.76 ± 0.14 kg/m3	2.572 ± 0.02 mPa·s	805.94 ± 0.14 kg/m3	2.265 ± 0.018 mPa·s	802.11 ± 0.14 kg/m3	2.002 ± 0.016 mPa·s	798.18 ± 0.15 kg/m3	1.787 ± 0.014 mPa·s	mass density ([3]; 313.15 K): 794.39 ± 0.15 kg/m3
CO [methanol] + CCCC[NH3+].O=[N+]([O-])[O-]												0.588 ± 0.006 mPa·s	791.23 ± 0.15 kg/m3	0.552 ± 0.006 mPa·s	786.54 ± 0.15 kg/m3	0.516 ± 0.006 mPa·s	781.81 ± 0.15 kg/m3	0.486 ± 0.005 mPa·s	777.05 ± 0.15 kg/m3	0.461 ± 0.005 mPa·s	mass density ([3]; 313.15 K): 772.25 ± 0.15 kg/m3
CO [methanol]	1.3264 ± 0.0004	0.588 ± 0.006 mPa·s	791.23 ± 0.15 kg/m3	0.552 ± 0.006 mPa·s	786.54 ± 0.15 kg/m3	0.516 ± 0.006 mPa·s	781.81 ± 0.15 kg/m3	0.486 ± 0.005 mPa·s	777.05 ± 0.15 kg/m3	0.461 ± 0.005 mPa·s	772.25 ± 0.15 kg/m3										
